Data: US20250230193A1, “CYCLIC COMPOUND HAVING SELECTIVE KRAS INHIBITORY EFFECT ON HRAS AND NRAS” (CHUGAI SEIYAKU KABUSHIKI KAISHA, priority 2022, published 2025)

Assays:
[1] = system: human lung cancer strain NCI-H441; assay: cells; conditions: NCI-H441, 96 h, read-out: NCI-H441 IC50 (nM)
[2] = molecular target: GDP-bound HRAS wild-type protein (Homo sapiens, UniProt P01112); assay: Binding to HRAS by surface plasmon resonance (SPR), Single Cycle Kinetics; conditions: SPR; KD ratio class
[3] = molecular target: GDP-bound NRAS wild-type protein (Homo sapiens, UniProt P01111); assay: Binding to NRAS by surface plasmon resonance (SPR), Single Cycle Kinetics; conditions: SPR; KD ratio class
GDP-bound NRAS wild-type protein, sequence (P01111 whole entry): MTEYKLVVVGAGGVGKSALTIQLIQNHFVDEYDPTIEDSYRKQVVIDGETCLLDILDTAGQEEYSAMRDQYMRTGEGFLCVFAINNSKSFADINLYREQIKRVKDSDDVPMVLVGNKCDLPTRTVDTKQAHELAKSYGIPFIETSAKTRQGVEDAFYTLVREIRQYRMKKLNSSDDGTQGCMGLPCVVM

GDP-bound HRAS wild-type protein, sequence (P01112 whole entry): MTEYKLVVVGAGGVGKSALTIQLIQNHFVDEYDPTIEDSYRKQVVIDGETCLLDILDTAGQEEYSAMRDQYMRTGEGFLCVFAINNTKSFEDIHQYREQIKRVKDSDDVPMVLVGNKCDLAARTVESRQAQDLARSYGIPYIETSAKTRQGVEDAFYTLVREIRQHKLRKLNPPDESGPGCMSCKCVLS

Structure (SMILES) | IC50 [1] [nM] | HRAS/KRAS (ratio of KD value for GDP-bound HRAS wild-type protein to KD value for KRAS) [2] | NRAS/KRAS (ratio of KD value for GDP-bound NRAS wild-type protein to KD value for KRAS) [3]
CCO[C@@H]1C[C@H]2C(=O)NC3(CCCC3)C(=O)N(C)[C@@H](C3CCCC3)C(=O)N(C)[C@H](C(=O)N(C)C)CC(=O)N(C)[C@@H](CC)C(=O)N[C@@H]([C@@H](C)CC)C(=O)N(C)CC(=O)N(C)[C@H]3C[C@H](C)C(C)CN(C3=O)[C@@H](Cc3ccc(C(F)(F)F)cc3)C(=O)N(C)CC(=O)N[C@@H](CCc3cc(F)c(C(F)(F)F)c(F)c3)C(=O)N2C1 (stereo partly drawn) [PP1347] | 3.6 | B (a compound having 3 or more and less than 10 is denoted as B) | B (a compound having 3 or more and less than 10 is denoted as B)
CCO[C@@H]1C[C@H]2C(=O)NC3(CCCC3)C(=O)N(C)[C@@H](C3CCCC3)C(=O)N(C)[C@H](C(=O)N3CCOCC3)CC(=O)N(C)[C@@H](CC)C(=O)N[C@@H]([C@@H](C)CC)C(=O)N(C)CC(=O)N(C)[C@H]3C[C@H](C)C(C)CN(C3=O)[C@@H](Cc3ccc(C(F)(F)F)cc3)C(=O)N(C)CC(=O)N[C@@H](CCc3cc(F)c(C(F)(F)F)c(F)c3)C(=O)N2C1 (stereo partly drawn) [PP1348] | 8.7 | B (a compound having 3 or more and less than 10 is denoted as B) | B (a compound having 3 or more and less than 10 is denoted as B)
CC[C@H](C)[C@@H]1NC(=O)[C@H](CC)N(C)C(=O)C[C@@H](C(=O)N(C)C)N(C)C(=O)[C@H](C2CCCC2)N(C)C(=O)C2(CCCC2)NC(=O)[C@@H]2CCCN2C(=O)[C@H](CCc2cc(F)c(C(F)(F)F)c(F)c2)NC(=O)CN(C)C(=O)[C@H](Cc2ccc(C(F)(F)F)cc2)N2CC(C)[C@@H](C)C[C@@H](C2=O)N(C)C(=O)CN(C)C1=O (stereo partly drawn) [PP1349] | 14.7 | B (a compound having 3 or more and less than 10 is denoted as B) | C (A compound having a KD ratio of 0.1 or more and less than 3 is denoted as C)
CC[C@H](C)[C@@H]1NC(=O)[C@H](CC)N(C)C(=O)C[C@@H](C(=O)N2CCOCC2)N(C)C(=O)[C@H](C2CCCC2)N(C)C(=O)C2(CCCC2)NC(=O)[C@@H]2CCCN2C(=O)[C@H](CCc2cc(F)c(C(F)(F)F)c(F)c2)NC(=O)CN(C)C(=O)[C@H](Cc2ccc(C(F)(F)F)cc2)N2CC(C)[C@@H](C)C[C@@H](C2=O)N(C)C(=O)CN(C)C1=O (stereo partly drawn) [PP1350] | 20.1 | B (a compound having 3 or more and less than 10 is denoted as B) | B (a compound having 3 or more and less than 10 is denoted as B)
CCO[C@@H]1C[C@H]2C(=O)NC3(CCC3)C(=O)N(C)[C@@H](C3CCCC3)C(=O)N(C)[C@H](C(=O)N3CCOCC3)CC(=O)N(C)[C@@H](CC)C(=O)N[C@@H]([C@@H](C)CC)C(=O)N3CC[C@H]3C(=O)N(C)[C@H]3C[C@@H](C)[C@@H](C)CN(C3=O)[C@@H](Cc3ccc(C(F)(F)F)cc3)C(=O)N(C)CC(=O)N[C@@H](CCc3cc(F)c(C(F)(F)F)c(F)c3)C(=O)N2C1 [PP1351] | 12.8 | B (a compound having 3 or more and less than 10 is denoted as B) | A (a compound having 10 or more and less than 20 is denoted as A)
CCO[C@@H]1C[C@H]2C(=O)NC3(CCCC3)C(=O)N(C)[C@@H](C3CCCC3)C(=O)N(C)[C@H](C(=O)N(C)C)CC(=O)N(C)[C@@H](CC)C(=O)N[C@@H]([C@@H](C)CC)C(=O)N(C)CC(=O)N(C)[C@H]3C[C@@H](C)[C@@H](C)CN(C3=O)[C@@H](Cc3ccc(C(F)(F)F)cc3)C(=O)N(C)CC(=O)N[C@@H](CCc3cc(F)c(C(F)(F)F)c(F)c3)C(=O)N2C1 [PP1352] | 4.6 | B (a compound having 3 or more and less than 10 is denoted as B) | A (a compound having 10 or more and less than 20 is denoted as A)
CCO[C@@H]1C[C@H]2C(=O)NC3(CCCC3)C(=O)N(C)[C@@H](C3CCCC3)C(=O)N(C)[C@H](C(=O)N3CCOCC3)CC(=O)N(C)[C@@H](CC)C(=O)N[C@@H]([C@@H](C)CC)C(=O)N(C)CC(=O)N(C)[C@H]3C[C@@H](C)[C@@H](C)CN(C3=O)[C@@H](Cc3ccc(C(F)(F)F)cc3)C(=O)N(C)CC(=O)N[C@@H](CCc3cc(F)c(C(F)(F)F)c(F)c3)C(=O)N2C1 [PP1353] | 3.7 | B (a compound having 3 or more and less than 10 is denoted as B) | A (a compound having 10 or more and less than 20 is denoted as A)
CCO[C@@H]1C[C@H]2C(=O)NC3(CCC3)C(=O)N(C)[C@@H](C3CCCC3)C(=O)N(C)[C@H](C(=O)N3CCOCC3)CC(=O)N(C)[C@@H](CC)C(=O)N[C@@H]([C@@H](C)CC)C(=O)N(C)CC(=O)N(C)[C@H]3C[C@@H](C)[C@@H](C)CN(C3=O)[C@@H](Cc3ccc(C(F)(F)F)cc3)C(=O)N(C)CC(=O)N[C@@H](CCc3cc(F)c(C(F)(F)F)c(F)c3)C(=O)N2C1 [PP1354] | 3.6 | B (a compound having 3 or more and less than 10 is denoted as B) | A (a compound having 10 or more and less than 20 is denoted as A)
CCO[C@@H]1C[C@H]2C(=O)NC3(CCC3)C(=O)N(C)[C@@H](C3CCCC3)C(=O)N(C)[C@H](C(=O)N3CCOCC3)CC(=O)N(C)[C@@H](CC(C)C)C(=O)N[C@@H]([C@@H](C)CC)C(=O)N3CC[C@H]3C(=O)N(C)[C@H]3C[C@@H](C)[C@@H](C)CN(C3=O)[C@@H](Cc3ccc(C(F)(F)F)cc3)C(=O)N(C)CC(=O)N[C@@H](CCc3cc(F)c(C(F)(F)F)c(F)c3)C(=O)N2C1 [PP1355] | 10.2 | B (a compound having 3 or more and less than 10 is denoted as B) | A (a compound having 10 or more and less than 20 is denoted as A)
CCO[C@@H]1C[C@H]2C(=O)NC3(CCCC3)C(=O)N(C)[C@@H](C3CCCC3)C(=O)N(C)[C@H](C(=O)N(C)C)CC(=O)N(C)[C@@H](CC3CC3)C(=O)N[C@@H]([C@@H](C)CC)C(=O)N(C)CC(=O)N(C)[C@H]3C[C@@H](C)[C@@H](C)CN(C3=O)[C@@H](Cc3ccc(C(F)(F)F)cc3)C(=O)N(C)CC(=O)N[C@@H](CCc3cc(F)c(C(F)(F)F)c(F)c3)C(=O)N2C1 [PP1356] | 3.3 | B (a compound having 3 or more and less than 10 is denoted as B) | B (a compound having 3 or more and less than 10 is denoted as B)
CCO[C@@H]1C[C@H]2C(=O)NC3(CCC3)C(=O)N(C)[C@@H](C3CCCC3)C(=O)N(C)[C@H](C(=O)N3CCOCC3)CC(=O)N(C)[C@@H](CC)C(=O)N[C@@H]([C@@H](C)CC)C(=O)N3CC[C@H]3C(=O)N(C)[C@H]3C[C@@H](C)[C@@H](C)CN(C3=O)[C@@H](Cc3ccc(C(F)(F)F)cc3)C(=O)N(C)CC(=O)N[C@@H](CCc3ccc(C(F)(F)F)c(Cl)c3)C(=O)N2C1 [PP1357] | 5.4 | B (a compound having 3 or more and less than 10 is denoted as B) | A (a compound having 10 or more and less than 20 is denoted as A)
CCO[C@@H]1C[C@H]2C(=O)NC3(CCCC3)C(=O)N(C)[C@@H](C3CCCC3)C(=O)N(C)[C@H](C(=O)N(C)C)CC(=O)N(C)[C@@H](CC)C(=O)N[C@@H]([C@@H](C)CC)C(=O)N(C)CC(=O)N(C)[C@H]3C[C@@H](C)[C@@H](C)CN(C3=O)[C@@H](Cc3ccc(C(F)(F)F)cc3)C(=O)N(C)CC(=O)N[C@@H](CCc3ccc(C(F)(F)F)c(Cl)c3)C(=O)N2C1 [PP1358] | 4.1 | B (a compound having 3 or more and less than 10 is denoted as B) | A (a compound having 10 or more and less than 20 is denoted as A)
CCO[C@@H]1C[C@H]2C(=O)NC3(CCCC3)C(=O)N(C)[C@@H](C3CCCC3)C(=O)N(C)[C@H](C(=O)N3CCOCC3)CC(=O)N(C)[C@@H](CC)C(=O)N[C@@H]([C@@H](C)CC)C(=O)N(C)CC(=O)N(C)[C@H]3C[C@@H](C)[C@@H](C)CN(C3=O)[C@@H](Cc3ccc(C(F)(F)F)cc3)C(=O)N(C)CC(=O)N[C@@H](CCc3ccc(C(F)(F)F)c(Cl)c3)C(=O)N2C1 [PP1359] | 3.2 | B (a compound having 3 or more and less than 10 is denoted as B) | A (a compound having 10 or more and less than 20 is denoted as A)
CCO[C@@H]1C[C@H]2C(=O)NC3(CCC3)C(=O)N(C)[C@@H](C3CCCC3)C(=O)N(C)[C@H](C(=O)N3CCOCC3)CC(=O)N(C)[C@@H](CC)C(=O)N[C@@H]([C@@H](C)CC)C(=O)N(C)CC(=O)N(C)[C@H]3C[C@@H](C)[C@@H](C)CN(C3=O)[C@@H](Cc3ccc(C(F)(F)F)cc3)C(=O)N(C)CC(=O)N[C@@H](CCc3ccc(C(F)(F)F)c(Cl)c3)C(=O)N2C1 [PP1360] | 4.9 | B (a compound having 3 or more and less than 10 is denoted as B) | A (a compound having 10 or more and less than 20 is denoted as A)
CCO[C@@H]1C[C@H]2C(=O)NC3(CCC3)C(=O)N(C)[C@@H](C3CCCC3)C(=O)N(C)[C@H](C(=O)N3CCOCC3)CC(=O)N(C)[C@@H](CC(C)C)C(=O)N[C@@H]([C@@H](C)CC)C(=O)N3CC[C@H]3C(=O)N(C)[C@H]3C[C@@H](C)[C@@H](C)CN(C3=O)[C@@H](Cc3ccc(C(F)(F)F)cc3)C(=O)N(C)CC(=O)N[C@@H](CCc3ccc(C(F)(F)F)c(Cl)c3)C(=O)N2C1 [PP1361] | 6.2 | B (a compound having 3 or more and less than 10 is denoted as B) | A (a compound having 10 or more and less than 20 is denoted as A)
